Test results as given in publication PMC11892739, “Site-specific molecular glues for the 14-3-3/Tau pS214 protein–protein interaction via reversible covalent imine tethering” (RSC Medicinal Chemistry, 2025).

Assays:
14-3-3ζ/p65 peptide = biological target: T1, 14-3-3ζ/p65 peptide (Homo sapiens, UniProt P63104); assay: FA peptide screen, 14-3-3ζ titration to client peptide and compound: p65; type: binding; details: 250 μM compound, 100 nM peptide; +1 Ile
T1 construct: made in house; host or cells: NiCo21 (DE3) E. coli
T1 sequence (P63104 whole entry, other chains not shown): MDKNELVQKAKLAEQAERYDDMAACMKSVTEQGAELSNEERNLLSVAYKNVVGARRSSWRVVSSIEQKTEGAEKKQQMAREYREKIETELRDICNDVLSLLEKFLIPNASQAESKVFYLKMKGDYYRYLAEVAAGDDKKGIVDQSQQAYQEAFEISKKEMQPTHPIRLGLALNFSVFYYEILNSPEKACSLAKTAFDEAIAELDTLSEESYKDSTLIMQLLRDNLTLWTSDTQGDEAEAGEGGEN
Description: Since the hub protein 14-3-3 binds to hundreds of phosphoprotein partners, selectivity of PPI stabilization is a major challenge. The interplay of chemical reactivity, and the topology and functionality of the composite binding pocket shaped by 14-3-3 and Tau potentially provide entries towards selective stabilization. […] Here, 14-3-3ζ was titrated to a constant concentration of client peptide (100 nM) and compound (250 μM) to determine the SF250μM values for the particular 14-3-3 PPI. A variety of 14-3-3 binding proteins was represented in this client panel whereby the size and hydrophobicity of the +1 amino acid were varied. […]
chromatography (HisTrap high performance cartridges, Cytiva). […] Dialyzed protein was concentrated to ∼40 mg/mL, analyzed by Q -Tof LC/MS, and aliquots were flash -frozen for storage at −80 °C. […]
0.1% (v/v) Tween20, 0.1% (w/v) BSA). […] Measurements were performed directly after plate preparation, using a Tecan SPARK plate reader at room temperature ( λex: 485±20 nm; λem: 535±25 nm; mirror: automatic; flashes: 30; settle time: 1 ms; gain: optimal; Z -position: calculated from well). […] All data were analyzed using GraphPad Prism (10.0.1) and fitted with a four -parameter logistic model (4PL) to determine binding affinities (dissociation constant, KD). […]
Fluorescence Anisotropy – peptide screen […]

14-3-3/Pin1 complex = tested on: 14-3-3/Pin1 complex; design: method as in PMID 34047554; details: 100 μM compound; cited from earlier work

| stabilization of 14-3-3/p65 peptide (in words) (14-3-3ζ/p65 peptide) | Structure (SMILES) | SF100μM for stabilization of the 14-3-3/Pin1 complex (14-3-3/Pin1 complex) |
| --- | --- | --- |
| minor off-target effects | CCc1ccc(-c2nccn2-c2ccc(C=O)c(Br)c2)cc1 [Compound 18] | – |
| – | O=Cc1ccc(-n2ccnc2-c2ccccc2)cc1Br [Compound 1] | 10 |
